In patent US11274332B2, “Methods of administering 3,4-diaminopyridine” (SERB SA, priority 2011, dated 2022):

Assay: Bioavailability/bioequivalence study of 3,4-DAP phosphate salt vs free base in healthy subjects (Example A)
Type: in vivo, human
Method: The primary objectives of the study were to evaluate the clinical tolerance of a single 10 mg dose (equivalent base) oral intake of 3,4-DAP salt in five healthy subjects and to determine the relative bioequivalence of a single 20 mg oral dose of 3,4-DAP administered as a salt or as a free base to 26 healthy subjects. The secondary objectives were to study pharmacokinetic parameters (elimination half and elimination constant), to compare the biological tolerance of both a 20 mg oral intake of 3,4-DAP as a free base and as a salt, and to measure QTcf intervals at expected Cmax.
This was an open and uncontrolled study of the clinical tolerance to a low dose of the phosphate salt. Subjects were hospitalized from 8 am to 4 pm after fasting since midnight the previous night. At 8:30 am, one 10 mg 3,4-DAP phosphate tablet was administered with a glass of water in the presence of a supervising nurse. During their 8-hour stay, heart rate was continuously monitored, blood pressure was measured on eight occasions (including baseline) and three urine samples were taken.
This was a double-blind, randomized 2-way cross-over trial. The two administration periods were separated by a wash-out of at least 3 days and not more than 10 days. At the beginning of each period, subjects were hospitalized at 8 am (while fasting since midnight) for at least 12 hours. At their arrival a urinary sample was taken and avenous catheter was inserted into an antecubital vein. A first blood sample was drawn 15 min before drug intake. At around 8:30 am drug was administered (as the phosphate salt or free base according to randomization) with a glass of water under the supervision of a nurse and subjects remained seated for 15 min. Group A received two 10 mg tablets of 3,4-DAP phosphate. Group B received two 10 mg capsules of 3,4-DAP as a free base.
Two 5 mL blood samples were drawn at the following times after drug administration: 5 min, 10 min, 15 min, 20 min, 30 min, 45 min, 60 min, 75 min, 90 min, 120 min, 240 min, 360 min, 480 min, and 660 min. At each sampling time two 5 mL samples were drawn on […] heparinized tubes. They were immediately centrifuged at room temperature. Serum was then separated and dispatched into three clearly identified aliquots which were frozen at −20° C. […]
12-lead ECGs (50 mm/s, 2 cm/mV) were recorded over 1 minute three times prior to drug intake (HR-RR, QT and QTcf were averaged to determine baseline values) and then at 15, 20, 30, 45, 60, 75, 90, 120, and 240 min post dose. ECG parameters were recorded by using Cardionics™ ECG/VCG software (version 3.3.0). Blood pressure was measured at 120 min post dosing. […]
An HPLC-electrochemical detection system was used to assay 3,4-DAP in serum samples. […] The extracted sample was analyzed by HPLC coupled with coulemetric detection. […]

Nc1ccncc1N [3,4-DAP, 3,4-diaminopyridine]
differences in Cmax, AUC and t1/2 between subjects (between patients): up to 10 fold | Cmax (human, serum, as the phosphate salt, 20 mg oral, read-out: Cmax, range between patients): 13 to 167 ng/mL | half-life (human, serum, phosphate salt or free base, 20 mg oral): < 156 min | coefficient of variations for AUCs and Cmax (phosphate salt or free base, 20 mg oral): exceeding 30%
